From patent US20130030006A1, “AGENT FOR PREVENTING OR TREATING DISEASES ACCOMPANIED BY URINARY PAIN” (priority 2010, published 2013)

How the values were obtained:
[1] = system: rat model with bladder pain; assay: Rat model with bladder pain (cyclophosphamide pre-treated, bladder expansion); type: in vivo
Experimental: Action of Compound with Respect to Rat Model with Bladder Pain
The analgesic action of the compound against bladder pain was examined using a pathological model. Cyclophosphamide (150 mg/kg) was administered intraperitoneally, and after two days, physiological saline was injected under a non-restraint condition, at a rate of 45 ml/h via a cannula inserted transurethrally into the bladder, thereby rapidly expanding the bladder. Due to rapid expansion of the bladder, amplification of electromyogram spikes in external oblique abdominal muscle accompanying behavior relating to pain was confirmed. The injection amount at this point in time can be taken as a threshold of bladder pain, which makes it possible to evaluate drug efficacy with respect to the threshold of bladder pain. […] For the rats pre-treated with cyclophosphamide, the threshold of bladder pain before and after the administration of a test compound was measured, and the change in amount (Δ ml) was investigated. In order to obtain a value before administration, bladder expansion was performed until a stabilized threshold of bladder pain was consecutively obtained three times, and the average of the threshold of bladder pain of the final three times was taken as a measured value. […] The average of the threshold of bladder pain consecutively measured three times was taken as a value measured after administration.

[2] = system: rat model with testis pain; assay: Rat model with testis pain (acetic acid into testes, writhing); type: in vivo
Experimental: Action of Compound with Respect to Rat Model with Testis Pain
The analgesic action of the compound against testis pain was examined using a pathological model. If 1% acetic acid is administered at 1 ml/kg to right and left testes of a rat by using an injection needle, pain behavior (writhing) accompanied by testis pain is observed, which makes it possible to evaluate drug efficacy on the pain behavior. […] The rats were transferred to a cylindrical acryl cage having a diameter of 30 cm and a height of 50 cm, and the number of times of pain behavior shown for 5 minutes to 15 minutes after the acetic acid administration was measured.

FAAH = molecular target: T1, FAAH (Homo sapiens, UniProt O00519); assay: Measurement of IC50 value of substance inhibiting FAAH activity using human bladder epithelial carcinoma-derived cell line 5637; type: cell-based
T1 construct: Human bladder epithelial carcinoma-derived cell line, 5637 cells (HTB-9; host or cells: 5637 human bladder epithelial carcinoma cells
T1 sequence (O00519 1-579): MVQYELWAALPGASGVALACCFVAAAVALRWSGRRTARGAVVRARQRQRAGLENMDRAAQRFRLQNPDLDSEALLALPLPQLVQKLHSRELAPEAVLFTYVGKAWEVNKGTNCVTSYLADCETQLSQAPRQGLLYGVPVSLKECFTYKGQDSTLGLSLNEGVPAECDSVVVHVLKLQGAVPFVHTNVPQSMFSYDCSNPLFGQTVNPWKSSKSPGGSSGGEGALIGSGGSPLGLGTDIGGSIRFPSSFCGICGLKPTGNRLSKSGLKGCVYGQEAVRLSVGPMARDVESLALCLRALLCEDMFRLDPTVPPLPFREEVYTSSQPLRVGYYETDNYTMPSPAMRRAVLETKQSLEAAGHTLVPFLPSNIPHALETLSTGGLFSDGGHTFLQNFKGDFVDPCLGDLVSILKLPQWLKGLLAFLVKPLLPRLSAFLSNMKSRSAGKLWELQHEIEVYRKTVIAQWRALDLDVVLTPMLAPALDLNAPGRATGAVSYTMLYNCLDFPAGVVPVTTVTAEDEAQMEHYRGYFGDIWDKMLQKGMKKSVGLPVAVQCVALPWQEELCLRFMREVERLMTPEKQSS
Experimental: Screening of Substance Inhibiting FAAH Activity by Using Human Bladder Epithelial Carcinoma-Derived Cell Line
(1) Screening of Substance Inhibiting FAAH Activity
Human bladder epithelial carcinoma-derived cell line, 5637 cells (HTB-9; ATCC) were seeded in a 48-well cell culture plate in an amount of 1×10^5 cells/well by using RPMI 1640 medium (Invitrogen) containing 10% fetal bovine serum (HyClone), followed by incubation at 37° C. for 12 hours or longer, and then the cells in each well were washed with 400 μl of a buffer (Hank's Balanced Salt Solution, 20 mM Hepes-NaOH (pH 7.4)). A test substance dissolved in DMSO was added to a substrate solution (the above buffer containing 3 μCi/ml radiolabeled anandamide (anandamide [ethanolamine 1-^3H]) and 10 μM anandamide) so as to have a concentration from 0.003 nM to 30 nM, and as a control, DMSO was added alone. 100 μl/well of the substrate solution was added to the cells, followed by incubation in a CO2 incubator at 37° C. for 30 minutes. […] A substance decreasing a measured value compared to the control was selected as a substance inhibiting FAAH activity. […]

Question: What does the source list for NC(=O)c1cncc(OC(=O)N2CCC(CCc3cccc(C(=O)N4CCCC4)c3)CC2)c1 [Compound J, 5-(aminocarbonyl)pyridin-3-yl 4-{2-[3-(pyrrolidin-1-ylcarbonyl)phenyl]ethyl}piperidine-1-carboxylate]?
Answer: Threshold of bladder pain (amount of physiological saline injected), compound-administered group ([1]; rat, in vivo, po): 0.150 Δ ml; Number of times of pain behavior, compound-administered group ([2]; rat, in vivo, po): 9.5

Question: How did the “Threshold of bladder pain (amount of physiological saline injected), compound-administered group” value ([1]; male SD rats, 3 mg/5 ml/kg oral, 120 minutes before measurement, change before vs after administration) turn out when O=C(Nc1ccccc1)C1CCN(C(=O)Oc2cccnc2)CC1 [Compound L, pyridin-3-yl 4-(anilinocarbonyl)piperidine-1-carboxylate] was run?
Answer: 0.173 Δ ml

Question: And the “Number of times of pain behavior, compound-administered group” value ([2]; male Wistar rats, 3 mg/5 ml/kg oral, 120 minutes before measurement, counted 5 to 15 minutes after acetic acid)?
Answer: 6.7

Question: NC(=O)c1cncc(OC(=O)N2CCC(CCc3cccc(C(=O)N4CCCCC4)c3)CC2)c1 [Compound I, 5-(aminocarbonyl)pyridin-3-yl 4-{2-[3-(piperidin-1-ylcarbonyl)phenyl]ethyl}piperidine-1-carboxylate] was tested. Which IC50 (FAAH) did it give?
Answer: 0.16 nM
